Experimental data taken from paper PMC6131501, “Urate transporter inhibitor lesinurad is a selective peroxisome proliferator-activated receptor gamma modulator (sPPARγM) in vitro” (Scientific Reports, 2018).
Where two headings read alike, the source gives them in different places.

How the values were obtained:
PPARγ = biological target: T1, PPARγ (Homo sapiens, UniProt P37231); assay: Gal4 hybrid reporter gene assay PPARγ; format: cell-based
T1 construct: expressed in transfected cells; host or cells: HEK293T
T1 sequence (P37231 238-503 limits assumed): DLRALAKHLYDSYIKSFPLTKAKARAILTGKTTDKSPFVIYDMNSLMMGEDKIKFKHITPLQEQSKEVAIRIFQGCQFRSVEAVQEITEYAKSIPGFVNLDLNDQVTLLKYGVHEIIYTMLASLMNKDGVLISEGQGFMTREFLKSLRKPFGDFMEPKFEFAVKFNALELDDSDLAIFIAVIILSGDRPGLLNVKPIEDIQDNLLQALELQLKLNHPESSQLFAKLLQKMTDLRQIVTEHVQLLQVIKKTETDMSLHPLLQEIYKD
Excerpt: These in vitro test systems are based on a constitutively expressed hybrid receptor composed of the ligand binding domain of the respective human nuclear receptor and the DNA binding domain of the yeast receptor Gal4. A Gal4-inducible firefly luciferase serves as reporter gene and a constitutively expressed renilla luciferase is used for normalization of transfection efficacy and internal toxicity control[18],[19]. […] The Gal4-fusion receptor plasmids pFA-CMV-hPPARα-LBD[50], pFA-CMV-hPPARγ-LBD[50], pFA-CMV-hPPARδ-LBD[50], pFA-CMV-hLXRα-LBD[51], pFA-CMV-hLXRβ-LBD[51], pFA-CMV-hRXRα-LBD[52], pFA-CMV-hRXRβ-LBD[52], pFA-CMV-hRXRγ-LBD[52], pFA-CMV-hRARα-LBD[52], pFA-CMV-hRARβ-LBD[52], pFA-CMV-hRARγ-LBD[52], pFA-CMV-hFXR-LBD[53], pFA-CMV-hVDR-LBD[52], pFA-CMV-hCAR-LBD[52] and pFA-CMV-hPXR-LBD[52] coding for the hinge region and ligand binding domain (LBD) of the canonical isoform of the respective nuclear receptor have been reported previously. pFR-Luc (Stratagene) was used as reporter plasmid and pRL-SV40 (Promega) for normalization of transfection efficiency and cell growth.
HEK293T cells were grown in DMEM high glucose, supplemented with 10% FCS, sodium pyruvate (1 mM), penicillin (100 U/mL) and streptomycin (100 μg/mL) at 37 °C and 5% CO2. The day before transfection, HEK293T cells were seeded in 96-well plates (3·10^4 cells/well). Before transfection, medium was changed to Opti-MEM without supplements. Transient transfection was carried out using Lipofectamine LTX reagent (Invitrogen) according to the manufacturer’s protocol with pFR-Luc (Stratagene), pRL-SV40 (Promega) and the corresponding Gal4-fusion nuclear receptor plasmid. 5 h after transfection, medium was changed to Opti-MEM supplemented with penicillin (100 U/mL), streptomycin (100 μg/mL), now additionally containing 0.1% DMSO and the respective test compound or 0.1% DMSO alone as untreated control. Each concentration was tested in duplicates and each experiment was repeated independently at least three times. Following overnight (12-14 h) incubation with the test compounds, cells were assayed for luciferase activity using Dual-Glo™ Luciferase Assay System (Promega) according to the manufacturer’s protocol. Luminescence was measured with an Infinite M200 luminometer (Tecan Deutschland GmbH). […] Fold activation was obtained by dividing the mean RLU of a test compound at a respective concentration by the mean RLU of untreated control.

PPARγ LBD / SRC-1 = PPARγ LBD / SRC-1 (Homo sapiens, UniProt P37231); assay: PPARγ coactivator recruitment assay (time-resolved FRET), SRC-1; format: biochemical
Excerpt: We analyzed the ability of lesinurad to induce recruitment of the coactivators steroid receptor coactivator 1 (SRC-1, also known as nuclear receptor coactivator 1 (NCOA1)) and cyclic AMP responsive element binding (CREB) protein (CBP) to the PPARγ ligand binding domain in a time-resolved FRET assay with labeled PPARγ-LBD and coactivator proteins (Fig. 5D).
Recruitment of coactivator-derived peptides to the PPARγ LBD was studied by homogeneous time-resolved fluorescence resonance energy transfer (HT-FRET or HTRF). Terbium cryptate as streptavidin conjugate (cisbio assays, France) was used as FRET donor. Peptides derived from coactivators SRC-1 [biotin-[…]] or CBP [biotin-[…]] encompassing the coactivator consensus motif LxxLL and N-terminal biotin for stable coupling to streptavidin were purchased (Eurogentec GmbH, Germany). […] FI520 nm was divided by FI620 nm and multiplied with 10,000 giving a dimensionless HTRF signal. Coactivator recruitment by the PPARγ LBD brings FRET donor and acceptor into close proximity resulting in a gain in FRET signal as signal for binding.

[1] = Control reporter experiment in absence of a hybrid receptor; format: cell-based; settings: 30 μM, w/o hybrid receptor
Excerpt: These in vitro test systems are based on a constitutively expressed hybrid receptor composed of the ligand binding domain of the respective human nuclear receptor and the DNA binding domain of the yeast receptor Gal4. A Gal4-inducible firefly luciferase serves as reporter gene and a constitutively expressed renilla luciferase is used for normalization of transfection efficacy and internal toxicity control[18],[19].

3T3-L1 cells = assay: Cytotoxicity in adipocyte differentiation experiment; format: cell-based, murine; settings: up to 50 μM (data not shown)
Description: For this, 3T3-L1 cells were treated with insulin, dexamethasone and isobutylmethylxanthine (IBMX) to induce their differentiation into mature adipocytes.

[2] = cited from earlier work; for peak plasma levels: oral dose of 200 mg

PPARγ LBD / SRC-1, sequence (Q15788 676-700 partner limits assumed, one chain of several): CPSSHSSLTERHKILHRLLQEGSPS

**Q.** Which Gal4-PPARγ transactivation (PPARγ; 30 μM) does the source give for `O=C(O)CSc1nnc(Br)n1-c1ccc(C2CC2)c2ccccc12` [lesinurad] here?
**A.** Its Gal4-PPARγ transactivation is “robustly transactivated”.

**Q.** And the EC50 (PPARγ; Gal4 hybrid reporter, HEK293T, 12-14 h, mean ± SEM, at least three experiments)?
**A.** The EC50 was 18.5 ± 0.7 µM.

**Q.** What about the EC50 (PPARγ LBD / SRC-1; HTRF, PPARγ LBD, 2 h at RT) of the same compound?
**A.** Its EC50 is 12 ± 2 µM.

**Q.** What about the SRC-1 recruitment efficacy (PPARγ LBD / SRC-1; compared to 1 μM rosiglitazone) of the same compound?
**A.** The SRC-1 recruitment efficacy was 91 ± 5%.

**Q.** What about the “reporter transactivation in absence of a hybrid receptor” value [1] of the same compound?
**A.** Its value is “no reporter transactivation”.

**Q.** What about the cytotoxicity (3T3-L1 cells) of the same compound?
**A.** The cytotoxicity was “no cytotoxicity”.

**Q.** And the free concentration ([2]; free plasma concentration after protein binding)?
**A.** The free concentration was 0.3 to 0.6 µM.

**Q.** And the peak plasma levels ([2]; ref 40)?
**A.** The peak plasma levels was 15 µM.

**Q.** And the peak plasma levels ([2]; ref 41)?
**A.** The peak plasma levels was 17 µM.

**Q.** What about the “mean peak plasma levels” value ([2]; single 600 mg oral dose, healthy men) of the same compound?
**A.** The value was 22 µg/mL.
